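Exposure lasted 48 hours, with cells grown in 96-well plates and compounds tested at five concentrations. At the GI50, growth is halved. TGI denotes the concentration required for complete inhibition of growth.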

Test in all cases: NCI-60 cell line screen, 48 h
The test system of assay [1] is SNB-75 CNS.
Assay [2] has as its system SK-MEL-28 melanoma.
The test system of assay [3] is HCT-116 colon.
Assay [4] relates to OVCAR-8 ovarian.
Assay [5] has as its system U251 CNS.
For assay [6], the system named is UACC-257 melanoma.
For assay [7], the system named is TK-10 renal.
In assay [8] the test system is SR leukemia.
For assay [9], the system named is UO-31 renal.
Assay [10] deals with SW-620 colon.

As for `COc1ccc2cc(C(=O)/C=C/c3cccc(Cl)c3Cl)ccc2c1`, the GI50 in assay [1] is 28.4 µM; in assay [2] it was 22.7 µM; in [3] it was 1 µM; in assay [4], 14.9 µM; in [5], 6.19 µM; in [6], 39.6 µM. The GI50 in [7] is 18.6 µM; in [8], 0.806 µM; in [9], 10.2 µM; in assay [10] it was 1.32 µM. In addition, the TGI was more than 90.8 µM in assay [1]; more than 71.9 µM in assay [2]; 19.6 µM in [3]; more than 100 µM in assay [4]; 65.3 µM in [5]; more than 100 µM in [6]. For the same compound, the TGI in [7] is more than 86.3 µM; in assay [8], more than 100 µM; in assay [9], more than 53.2 µM; in assay [10] it was more than 100 µM.

Take `Cn1ccc(=Nc2ccc(NC(=O)c3ccc(N=c4ccn(C)c5ccc([N+](=O)[O-])cc45)cc3)cc2)cc1`: the GI50 in assay [1] is 3.63 µM; in assay [2] it was 22.9 µM; in [3], 3.76 µM; in [4], more than 100 µM; in assay [5], 0.437 µM; in assay [6], 12.5 µM. The GI50 is more than 100 µM in assay [7], 33 µM in assay [8], more than 100 µM in assay [9] and 8.6 µM in [10]. Also, the TGI is 28.5 µM in assay [1]; 92.3 µM in [2]; more than 100 µM in assay [3]; more than 100 µM in [4]; more than 100 µM in assay [5]; 74.5 µM in assay [6]. For the same compound, the TGI in assay [7], in assay [8], in assay [9] and in [10] was more than 100 µM in each case.

For `CC(=O)O[C@H]1[C@@H]2[C@@H]3[C@@H](C[C@H]1C)[C@@H](C)CO[C@@]1(C)CC/C=C(/C)C[C@@H]2O[C@@H]31`, the TGI in [1], in assay [2], in assay [3], in assay [4], in assay [5] and in assay [6] was more than 100 µM in each case. The TGI in [7], in assay [8], in assay [9] and in [10] was more than 100 µM each time.

For `CC[N+](CC)=c1ccc2nc3c(cc(NCc4ccccc4)c4ccccc43)oc-2c1`, the GI50 in assay [1] was 0.385 µM; in assay [2] it was 1.2 µM; in assay [3], 0.154 µM; in [4], 0.362 µM; in [5], 0.196 µM; in assay [6] it was 0.159 µM. The GI50 in assay [7] is 0.671 µM; in assay [8], 0.27 µM; in assay [9], 0.089 µM; in [10], 0.302 µM. Also, the TGI in assay [1] came to 0.808 µM; in assay [2], 2.47 µM; in assay [3], 0.709 µM; in assay [4], 2.38 µM; in assay [5], 0.962 µM; in [6], 0.387 µM. The TGI in assay [7] was determined as 2.29 µM; in assay [8], 0.999 µM; in assay [9] it was 1.15 µM; in assay [10], 1.4 µM.

In the case of `Cc1ccc(N=C2CSc3nnc(-c4csc5c4CCCC5)n3N2)cc1`, the GI50 in assay [1] was 0.13 µM; in assay [2] it was 8.24 µM; in assay [3], 0.225 µM; in [4] it was 0.223 µM; in assay [5], 0.2 µM; in assay [6] it was more than 50 µM. Further, the GI50 in [7] was more than 50 µM; in [8], 0.179 µM; in [9], 0.43 µM; in assay [10], 0.204 µM. Further, the TGI in [1] is 17.2 µM; in assay [2], more than 50 µM; in assay [3], more than 50 µM; in assay [4] it was more than 50 µM; in assay [5], more than 50 µM; in assay [6], more than 50 µM. The TGI in assay [7], in assay [8], in [9] and in [10] was more than 50 µM in each case.

`Nc1ccc(C#Cc2cncnc2Nc2ccc(OCc3cccc(F)c3)c(Cl)c2)cc1`: the GI50 in [1] is more than 12.1 µM; in assay [2], more than 19 µM; in [3], 10.6 µM; in assay [4], 11.9 µM; in assay [5] it was more than 14 µM; in [6], more than 13.2 µM. Further, the GI50 is 3.58 µM in assay [7], more than 18 µM in [8], 3.2 µM in assay [9] and more than 25 µM in assay [10]. The TGI in assay [1] was 24.5 µM; in [2] it was more than 25 µM; in assay [3], more than 25 µM; in assay [4], more than 25 µM; in assay [5], more than 25 µM; in assay [6], more than 25 µM. Also, the TGI in assay [7], in [8], in assay [9] and in assay [10] was more than 25 µM in each case.

With `Cc1c(O)c(=O)ccn1C1OC(CO)C(O)C1O` (stereo not given), the TGI in assay [1], in assay [2], in [3], in [4], in assay [5] and in assay [6] was more than 100 µM each time. The TGI in assay [7], in assay [8], in assay [9] and in assay [10] was more than 100 µM each time.

Consider `NC(=O)c1[nH]nc(C2OC(CO)C(O)C2O)c1O` (stereo not given), for which the TGI in [1] was 840 µM; in assay [2] it was more than 5000 µM; in [3], 3770 µM; in [4], 212 µM; in [5], 4010 µM; in assay [6], more than 5000 µM. Besides, the TGI was 2320 µM in assay [7], more than 232 µM in [8], 1020 µM in [9] and 2050 µM in assay [10].

As to `CCOP(=O)(CC(=O)C1=C(O)C(CCCNC(=O)OC(C)(C)C)N(Cc2ccc(OC)c(OC)c2)C1=O)OCC` (stereo not given), the TGI in assay [1], in assay [2], in [3], in assay [4], in assay [5] and in assay [6] was more than 100 µM throughout. In addition, the TGI in assay [7], in [8], in assay [9] and in assay [10] was more than 100 µM each time.

The values above are taken from PubChem BioAssay (NCI).
